How the values were obtained:
Experiment in all cases: Cell proliferation assay (ATPlite), drug with vs without cobicistat
Type in all cases: cell-based
[1] = test system: T24; conditions: T24 cell line; 120 hours incubation
How it was run: (§1)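 Following 24 h of growth after seeding at 200–3200 cells/well, cultures received test compound in duplicate over a 9-point dilution series (3.16×10^−5–3.16×10^−9 M; 0.4% DMSO). They were incubated a further 120 h before luminescent ATP detection.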

[2] = test system: MOLT-4; conditions: MOLT-4 cell line; 120 hours incubation
How it was run: as §1

[3] = test system: DLD-1; conditions: DLD-1 cell line; 120 hours incubation
How it was run: as §1

[4] = test system: SW48; conditions: SW48 cell line; 120 hours incubation
How it was run: as §1

[5] = test system: BT-549; conditions: BT-549 cell line; 120 hours incubation
How it was run: as §1

[6] = test system: VA-ES-BJ; conditions: VA-ES-BJ cell line; 120 hours incubation
How it was run: as §1

[7] = test system: BxPC-3; conditions: BxPC-3 cell line; 120 hours incubation
How it was run: as §1

[8] = test system: T98G; conditions: T98G cell line; 120 hours incubation
How it was run: as §1

[9] = test system: FaDu; conditions: FaDu cell line; 120 hours incubation
How it was run: as §1

[10] = test system: A388; conditions: A388 cell line; 120 hours incubation
How it was run: as §1

[11] = test system: BT-20; conditions: BT-20 cell line; 120 hours incubation
How it was run: as §1

[12] = test system: LNCaP FGC; conditions: LNCaP FGC cell line; 120 hours incubation
How it was run: as §1

[13] = test system: KU812; conditions: KU812 cell line; 120 hours incubation
How it was run: as §1

[14] = test system: K-562; conditions: K-562 cell line; 120 hours incubation
How it was run: as §1

[15] = test system: CAL 27; conditions: CAL 27 cell line; 120 hours incubation
How it was run: as §1

[16] = test system: SW948; conditions: SW948 cell line; 120 hours incubation
How it was run: as §1

[17] = test system: 769-P; conditions: 769-P cell line; 120 hours incubation
How it was run: as §1

[18] = test system: A-172; conditions: A-172 cell line; 120 hours incubation
How it was run: as §1

[19] = test system: ACHN; conditions: ACHN cell line; 120 hours incubation
How it was run: as §1

[20] = test system: SW480; conditions: SW480 cell line; 120 hours incubation
How it was run: as §1

[21] = test system: SK-N-FI; conditions: SK-N-FI cell line; 120 hours incubation
How it was run: as §1

[22] = test system: SW620; conditions: SW620 cell line; 120 hours incubation
How it was run: as §1

[23] = test system: DU 145; conditions: DU 145 cell line; 120 hours incubation
How it was run: as §1

[24] = test system: A-204; conditions: A-204 cell line; 120 hours incubation
How it was run: as §1

[25] = test system: MCF7; conditions: MCF7 cell line; 120 hours incubation
How it was run: as §1

[26] = test system: A-704; conditions: A-704 cell line; 120 hours incubation
How it was run: as §1

[27] = test system: A-427; conditions: A-427 cell line; 120 hours incubation
How it was run: as §1

[28] = test system: SNU-C2B; conditions: SNU-C2B cell line; 120 hours incubation
How it was run: as §1

[29] = test system: AsPC-1; conditions: AsPC-1 cell line; 120 hours incubation
How it was run: as §1

[30] = test system: SUP-T1; conditions: SUP-T1 cell line; 120 hours incubation
How it was run: as §1

SMILES	Fold change in IC50 (IC50 [Drug + Cobicistat]/IC50 [Drug]) [1]	Fold change in IC50 (IC50 [Drug + Cobicistat]/IC50 [Drug]) [2]	Fold change in IC50 (IC50 [Drug + Cobicistat]/IC50 [Drug]) [3]	Fold change in IC50 (IC50 [Drug + Cobicistat]/IC50 [Drug]) [4]	Fold change in IC50 (IC50 [Drug + Cobicistat]/IC50 [Drug]) [5]	Fold change in IC50 (IC50 [Drug + Cobicistat]/IC50 [Drug]) [6]	Fold change in IC50 (IC50 [Drug + Cobicistat]/IC50 [Drug]) [7]	Fold change in IC50 (IC50 [Drug + Cobicistat]/IC50 [Drug]) [8]	Fold change in IC50 (IC50 [Drug + Cobicistat]/IC50 [Drug]) [9]	Fold change in IC50 (IC50 [Drug + Cobicistat]/IC50 [Drug]) [10]	Fold change in IC50 (IC50 [Drug + Cobicistat]/IC50 [Drug]) [11]	Fold change in IC50 (IC50 [Drug + Cobicistat]/IC50 [Drug]) [12]	Fold change in IC50 (IC50 [Drug + Cobicistat]/IC50 [Drug]) [13]	Fold change in IC50 (IC50 [Drug + Cobicistat]/IC50 [Drug]) [14]	Fold change in IC50 (IC50 [Drug + Cobicistat]/IC50 [Drug]) [15]	Fold change in IC50 (IC50 [Drug + Cobicistat]/IC50 [Drug]) [16]	Fold change in IC50 (IC50 [Drug + Cobicistat]/IC50 [Drug]) [17]	Fold change in IC50 (IC50 [Drug + Cobicistat]/IC50 [Drug]) [18]	Fold change in IC50 (IC50 [Drug + Cobicistat]/IC50 [Drug]) [19]	Fold change in IC50 (IC50 [Drug + Cobicistat]/IC50 [Drug]) [20]	other results
Cc1nc(Nc2ncc(C(=O)Nc3c(C)cccc3Cl)s2)cc(N2CCN(CCO)CC2)n1 [dasatinib]	3.9 fold	1.1 fold	1.4 fold	2.2 fold	1.5 fold	3.1 fold	2.2 fold	2.3 fold	2.1 fold	1.9 fold	1.4 fold	1.3 fold	1.5 fold	1.1 fold	1.3 fold	1.2 fold	3.8 fold	1.7 fold	2.8 fold	1.0 fold	Fold change in IC50 (IC50 [Drug + Cobicistat]/IC50 [Drug]) [21]: 2.0 fold; Fold change in IC50 (IC50 [Drug + Cobicistat]/IC50 [Drug]) [22]: 3.2 fold; Fold change in IC50 (IC50 [Drug + Cobicistat]/IC50 [Drug]) [23]: 3.6 fold; Fold change in IC50 (IC50 [Drug + Cobicistat]/IC50 [Drug]) [24]: 2.2 fold; Fold change in IC50 (IC50 [Drug + Cobicistat]/IC50 [Drug]) [25]: 1.9 fold; Fold change in IC50 (IC50 [Drug + Cobicistat]/IC50 [Drug]) [26]: 1.0 fold; Fold change in IC50 (IC50 [Drug + Cobicistat]/IC50 [Drug]) [27]: 5.8 fold; Fold change in IC50 (IC50 [Drug + Cobicistat]/IC50 [Drug]) [28]: 0.9 fold; Fold change in IC50 (IC50 [Drug + Cobicistat]/IC50 [Drug]) [29]: 1.2 fold; Fold change in IC50 (IC50 [Drug + Cobicistat]/IC50 [Drug]) [30]: 1.4 fold
CC(=O)O[C@@]12CO[C@@H]1C[C@H](O)[C@@]1(C)C(=O)[C@H](O)C3=C(C)[C@@H](OC(=O)[C@H](O)[C@@H](NC(=O)OC(C)(C)C)c4ccccc4)C[C@@](O)([C@@H](OC(=O)c4ccccc4)[C@H]21)C3(C)C [docetaxel]	6.3 fold	1.7 fold	2.7 fold	1.6 fold	1.4 fold	5.0 fold	3.0 fold	7.7 fold	1.7 fold	6.0 fold	1.7 fold	3.8 fold	5.6 fold	3.2 fold	1.4 fold	3.5 fold	3.0 fold	2.0 fold	4.6 fold	2.3 fold	Fold change in IC50 (IC50 [Drug + Cobicistat]/IC50 [Drug]) [21]: 5.1 fold; Fold change in IC50 (IC50 [Drug + Cobicistat]/IC50 [Drug]) [22]: 2.7 fold; Fold change in IC50 (IC50 [Drug + Cobicistat]/IC50 [Drug]) [23]: 4.8 fold; Fold change in IC50 (IC50 [Drug + Cobicistat]/IC50 [Drug]) [24]: 5.7 fold; Fold change in IC50 (IC50 [Drug + Cobicistat]/IC50 [Drug]) [25]: 4.1 fold; Fold change in IC50 (IC50 [Drug + Cobicistat]/IC50 [Drug]) [26]: 2.3 fold; Fold change in IC50 (IC50 [Drug + Cobicistat]/IC50 [Drug]) [27]: 1.3 fold; Fold change in IC50 (IC50 [Drug + Cobicistat]/IC50 [Drug]) [28]: 4.8 fold; Fold change in IC50 (IC50 [Drug + Cobicistat]/IC50 [Drug]) [29]: 5.0 fold; Fold change in IC50 (IC50 [Drug + Cobicistat]/IC50 [Drug]) [30]: 4.5 fold
COc1cccc2c1C(=O)c1c(O)c3c(c(O)c1C2=O)C[C@@](O)(C(=O)CO)C[C@@H]3O[C@H]1C[C@H](N)[C@H](O)[C@H](C)O1 [doxorubicin]	1.8 fold	1.9 fold	1.4 fold	1.8 fold	1.5 fold	2.8 fold	2.2 fold	1.4 fold	1.7 fold	1.7 fold	1.0 fold	1.8 fold	2.9 fold	2.5 fold	1.9 fold	2.5 fold	5.1 fold	2.5 fold	2.2 fold	2.5 fold	Fold change in IC50 (IC50 [Drug + Cobicistat]/IC50 [Drug]) [21]: 2.0 fold; Fold change in IC50 (IC50 [Drug + Cobicistat]/IC50 [Drug]) [22]: 2.6 fold; Fold change in IC50 (IC50 [Drug + Cobicistat]/IC50 [Drug]) [23]: 2.1 fold; Fold change in IC50 (IC50 [Drug + Cobicistat]/IC50 [Drug]) [24]: 2.5 fold; Fold change in IC50 (IC50 [Drug + Cobicistat]/IC50 [Drug]) [25]: 1.9 fold; Fold change in IC50 (IC50 [Drug + Cobicistat]/IC50 [Drug]) [26]: 1.3 fold; Fold change in IC50 (IC50 [Drug + Cobicistat]/IC50 [Drug]) [27]: 1.5 fold; Fold change in IC50 (IC50 [Drug + Cobicistat]/IC50 [Drug]) [28]: 1.2 fold; Fold change in IC50 (IC50 [Drug + Cobicistat]/IC50 [Drug]) [29]: 1.3 fold; Fold change in IC50 (IC50 [Drug + Cobicistat]/IC50 [Drug]) [30]: 2.0 fold
CC(=O)O[C@H]1C(=O)[C@@]2(C)[C@H]([C@H](OC(=O)c3ccccc3)[C@]3(O)C[C@H](OC(=O)[C@H](O)[C@@H](NC(=O)c4ccccc4)c4ccccc4)C(C)=C1C3(C)C)[C@]1(OC(C)=O)CO[C@@H]1C[C@@H]2O [paclitaxel]	4.4 fold	2.1 fold	1.9 fold	1.4 fold	1.2 fold	2.8 fold	3.2 fold	5.2 fold	1.3 fold	2.7 fold	1.5 fold	2.5 fold	4.6 fold	2.4 fold	2.0 fold	2.6 fold	2.9 fold	1.7 fold	2.5 fold	1.9 fold	Fold change in IC50 (IC50 [Drug + Cobicistat]/IC50 [Drug]) [21]: 2.5 fold; Fold change in IC50 (IC50 [Drug + Cobicistat]/IC50 [Drug]) [22]: 1.8 fold; Fold change in IC50 (IC50 [Drug + Cobicistat]/IC50 [Drug]) [23]: 4.8 fold; Fold change in IC50 (IC50 [Drug + Cobicistat]/IC50 [Drug]) [24]: 3.6 fold; Fold change in IC50 (IC50 [Drug + Cobicistat]/IC50 [Drug]) [25]: 3.3 fold; Fold change in IC50 (IC50 [Drug + Cobicistat]/IC50 [Drug]) [26]: 1.5 fold; Fold change in IC50 (IC50 [Drug + Cobicistat]/IC50 [Drug]) [27]: 1.2 fold; Fold change in IC50 (IC50 [Drug + Cobicistat]/IC50 [Drug]) [28]: 3.0 fold; Fold change in IC50 (IC50 [Drug + Cobicistat]/IC50 [Drug]) [29]: 2.2 fold; Fold change in IC50 (IC50 [Drug + Cobicistat]/IC50 [Drug]) [30]: 3.5 fold

From patent US20180036289A1 (Gilead Sciences, Inc., priority 2016, published 2018)
